Data as given in US9670213B2, “Pteridine ketone derivative and applications thereof as EGFR, BLK, and FLT3 inhibitor” (EAST CHINA UNIVERSITY OF SCIENCE AND TECHNOLOGY, priority 2012, dated 2017).

What was measured:
Format in all cases: biochemical
EGFR-L858R = EGFR-L858R (Homo sapiens (Human), UniProt P00533, L858R); experiment: In vitro EGFR kinase activity assay (Z'-Lyte); conditions: read-out: Inhibitory activity on EGFR kinase (IC50, nM) L858R;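 further: Cell-free kinase reaction with peptide substrate and ATP, 1.5 h at room temperature, then development step cleaving non-phosphorylated peptide, 10-point dilution series 0.051–1000 nM, phosphopeptide as 100% phosphorylation control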
ABL = ABL (Homo sapiens (Human), UniProt P00519); experiment: Kinase selectivity analysis (Caliper mobility shift assay)
Description: (§1) Kinase selectivity analysis: kinase selectivity experiment was performed by Shanghai ChemPartner using Caliper assay screening platform. All of kinases and other materials were purchased from commercial companies.
(§2) 3. Preparation of assay plate: 5 μL of solution from each well of the 96-well temporary plate was added into a 384-well plate, and the experiment was independently repeated.
(§3) 5. Caliper readings: experimental data were collected on Caliper.
(§4) 6. Curve fitting: 1) conversion data were replicated from Caliper program. 2) the conversion value was converted into inhibition rate, inhibition rate %=(maximum−conversion value)/(maximum−minimum)*100, wherein “maximum” represents DMSO control, and minimum represents the low control.

AUR B = AUR B (Homo sapiens (Human), UniProt Q96GD4); experiment: as above
Description: as §1, §2, §3, §4

BLK = BLK (Homo sapiens (Human), UniProt P51451); experiment: as above
Description: as §1, §2, §3, §4

C-MET = C-MET (Homo sapiens (Human), UniProt P08581); experiment: as above
Description: as §1, §2, §3, §4

CDK2 = CDK2 (Homo sapiens (Human), UniProt P24941); experiment: as above
Description: as §1, §2, §3, §4

ERK1 = ERK1 (Homo sapiens (Human), UniProt P27361); experiment: as above
Description: as §1, §2, §3, §4

FGFR1 = FGFR1 (Homo sapiens (Human), UniProt P11362); experiment: as above
Description: as §1, §2, §3, §4

FGFR3 = FGFR3 (Homo sapiens (Human), UniProt P22607); experiment: as above
Description: as §1, §2, §3, §4

FLT1 = FLT1 (Homo sapiens (Human), UniProt P17948); experiment: as above
Description: as §1, §2, §3, §4

FLT3 = FLT3 (Homo sapiens (Human), UniProt P36888); experiment: as above
Description: as §1, §2, §3, §4

GSK3b = GSK3b (Homo sapiens (Human), UniProt P49841); experiment: as above
Description: as §1, §2, §3, §4

HER2 = HER2 (Homo sapiens (Human), UniProt P04626); experiment: as above
Description: as §1, §2, §3, §4

HER4 = HER4 (Homo sapiens (Human), UniProt Q15303); experiment: as above
Description: as §1, §2, §3, §4

IGF1R = IGF1R (Homo sapiens (Human), UniProt P08069); experiment: as above
Description: as §1, §2, §3, §4

IKKB = IKKB (Homo sapiens (Human), UniProt O14920); experiment: as above
Description: as §1, §2, §3, §4

JAK2 = JAK2 (Homo sapiens (Human), UniProt O60674); experiment: as above
Description: as §1, §2, §3, §4

KDR = KDR (Homo sapiens (Human), UniProt P35968); experiment: as above
Description: as §1, §2, §3, §4

LCK = LCK (Homo sapiens (Human), UniProt P06239); experiment: as above
Description: as §1, §2, §3, §4

LYNA = LYNA (Homo sapiens (Human), UniProt P07948); experiment: as above
Description: as §1, §2, §3, §4

P38a = P38a (Homo sapiens (Human), UniProt Q16539); experiment: as above
Description: as §1, §2, §3, §4

PDGFRa = PDGFRa (Homo sapiens (Human), UniProt P16234); experiment: as above
Description: as §1, §2, §3, §4

PDGFRb = PDGFRb (Homo sapiens (Human), UniProt P09619); experiment: as above
Description: as §1, §2, §3, §4

PIM1 = PIM1 (Homo sapiens (Human), UniProt P11309); experiment: as above
Description: as §1, §2, §3, §4

PKACa = PKACa (Homo sapiens (Human), UniProt P17612); experiment: as above
Description: as §1, §2, §3, §4

SRC = SRC (Homo sapiens (Human), UniProt P12931); experiment: as above
Description: as §1, §2, §3, §4

cKit = cKit (Homo sapiens (Human), UniProt P10721); experiment: as above
Description: as §1, §2, §3, §4

[1] = read-out: % inhibition (1 μM), 1 μM
[2] = read-out: % inhibition (10 μM), 10 μM

Chain of IKKB (O14920 whole entry, species assumed): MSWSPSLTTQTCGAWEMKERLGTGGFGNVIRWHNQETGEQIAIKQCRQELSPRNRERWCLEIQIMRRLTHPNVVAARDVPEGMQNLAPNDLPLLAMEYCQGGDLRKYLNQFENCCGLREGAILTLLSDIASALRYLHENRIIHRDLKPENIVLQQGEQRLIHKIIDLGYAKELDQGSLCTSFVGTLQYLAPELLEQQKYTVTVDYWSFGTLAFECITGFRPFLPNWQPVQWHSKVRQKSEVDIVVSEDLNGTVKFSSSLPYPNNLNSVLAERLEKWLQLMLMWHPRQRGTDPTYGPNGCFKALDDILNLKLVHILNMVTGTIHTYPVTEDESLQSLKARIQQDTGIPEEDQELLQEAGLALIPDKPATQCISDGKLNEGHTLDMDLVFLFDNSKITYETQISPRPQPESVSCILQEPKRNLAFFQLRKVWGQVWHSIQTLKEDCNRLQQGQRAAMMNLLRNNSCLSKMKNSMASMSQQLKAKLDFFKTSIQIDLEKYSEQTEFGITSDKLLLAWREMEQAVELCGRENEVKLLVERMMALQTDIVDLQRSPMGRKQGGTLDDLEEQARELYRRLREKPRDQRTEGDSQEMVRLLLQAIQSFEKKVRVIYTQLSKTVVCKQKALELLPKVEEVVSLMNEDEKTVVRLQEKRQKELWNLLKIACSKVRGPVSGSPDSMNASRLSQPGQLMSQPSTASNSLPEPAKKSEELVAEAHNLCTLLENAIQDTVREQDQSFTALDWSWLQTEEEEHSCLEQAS
Chain of SRC (P12931 whole entry, looked up, species assumed): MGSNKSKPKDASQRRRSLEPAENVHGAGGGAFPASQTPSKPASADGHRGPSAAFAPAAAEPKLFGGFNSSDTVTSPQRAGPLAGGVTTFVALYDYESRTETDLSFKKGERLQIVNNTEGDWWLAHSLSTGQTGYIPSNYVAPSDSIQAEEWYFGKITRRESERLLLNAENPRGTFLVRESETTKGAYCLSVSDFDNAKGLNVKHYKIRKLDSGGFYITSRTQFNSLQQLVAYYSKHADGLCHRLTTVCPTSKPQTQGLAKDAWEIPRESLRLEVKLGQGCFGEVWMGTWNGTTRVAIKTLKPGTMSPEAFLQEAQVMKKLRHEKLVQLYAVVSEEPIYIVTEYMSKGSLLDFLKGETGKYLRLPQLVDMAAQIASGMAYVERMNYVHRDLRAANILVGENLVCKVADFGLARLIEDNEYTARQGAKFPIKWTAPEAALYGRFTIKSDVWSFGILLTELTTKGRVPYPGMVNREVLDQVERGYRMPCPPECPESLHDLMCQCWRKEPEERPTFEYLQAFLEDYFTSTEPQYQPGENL
Chain of IGF1R (P08069 31-1367, species assumed): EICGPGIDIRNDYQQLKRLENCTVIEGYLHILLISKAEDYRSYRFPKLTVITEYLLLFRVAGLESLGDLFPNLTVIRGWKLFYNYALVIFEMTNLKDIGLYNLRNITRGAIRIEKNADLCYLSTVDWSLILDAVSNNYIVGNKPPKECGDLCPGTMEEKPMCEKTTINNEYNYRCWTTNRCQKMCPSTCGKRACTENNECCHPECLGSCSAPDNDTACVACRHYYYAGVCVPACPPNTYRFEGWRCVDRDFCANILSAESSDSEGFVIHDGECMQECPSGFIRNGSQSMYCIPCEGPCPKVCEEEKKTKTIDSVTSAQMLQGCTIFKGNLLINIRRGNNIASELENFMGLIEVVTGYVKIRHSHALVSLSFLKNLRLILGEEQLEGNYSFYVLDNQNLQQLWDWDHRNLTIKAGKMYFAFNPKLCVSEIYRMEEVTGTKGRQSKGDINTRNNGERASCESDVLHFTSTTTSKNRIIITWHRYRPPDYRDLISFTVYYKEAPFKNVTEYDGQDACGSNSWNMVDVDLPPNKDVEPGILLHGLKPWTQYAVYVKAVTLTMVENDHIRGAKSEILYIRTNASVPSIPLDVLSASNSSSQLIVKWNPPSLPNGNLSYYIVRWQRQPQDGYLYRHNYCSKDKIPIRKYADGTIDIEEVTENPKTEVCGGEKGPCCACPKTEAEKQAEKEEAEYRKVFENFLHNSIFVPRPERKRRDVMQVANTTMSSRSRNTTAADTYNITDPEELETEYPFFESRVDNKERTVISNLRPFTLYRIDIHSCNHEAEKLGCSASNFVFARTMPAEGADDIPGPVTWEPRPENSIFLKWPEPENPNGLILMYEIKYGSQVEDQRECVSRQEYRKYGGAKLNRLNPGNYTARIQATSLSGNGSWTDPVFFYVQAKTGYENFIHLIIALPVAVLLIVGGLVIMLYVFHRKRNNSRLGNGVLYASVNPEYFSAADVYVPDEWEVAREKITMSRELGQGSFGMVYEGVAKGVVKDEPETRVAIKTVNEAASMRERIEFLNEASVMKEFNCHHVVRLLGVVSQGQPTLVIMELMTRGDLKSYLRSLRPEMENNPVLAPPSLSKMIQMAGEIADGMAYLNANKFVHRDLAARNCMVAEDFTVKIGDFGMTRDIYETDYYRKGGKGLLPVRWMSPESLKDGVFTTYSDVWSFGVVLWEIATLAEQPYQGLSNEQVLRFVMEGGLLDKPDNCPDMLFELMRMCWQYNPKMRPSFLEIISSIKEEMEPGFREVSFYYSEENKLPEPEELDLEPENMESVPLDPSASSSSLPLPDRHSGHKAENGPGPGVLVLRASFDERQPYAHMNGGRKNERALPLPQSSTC
Chain of LCK (P06239 whole entry, species assumed): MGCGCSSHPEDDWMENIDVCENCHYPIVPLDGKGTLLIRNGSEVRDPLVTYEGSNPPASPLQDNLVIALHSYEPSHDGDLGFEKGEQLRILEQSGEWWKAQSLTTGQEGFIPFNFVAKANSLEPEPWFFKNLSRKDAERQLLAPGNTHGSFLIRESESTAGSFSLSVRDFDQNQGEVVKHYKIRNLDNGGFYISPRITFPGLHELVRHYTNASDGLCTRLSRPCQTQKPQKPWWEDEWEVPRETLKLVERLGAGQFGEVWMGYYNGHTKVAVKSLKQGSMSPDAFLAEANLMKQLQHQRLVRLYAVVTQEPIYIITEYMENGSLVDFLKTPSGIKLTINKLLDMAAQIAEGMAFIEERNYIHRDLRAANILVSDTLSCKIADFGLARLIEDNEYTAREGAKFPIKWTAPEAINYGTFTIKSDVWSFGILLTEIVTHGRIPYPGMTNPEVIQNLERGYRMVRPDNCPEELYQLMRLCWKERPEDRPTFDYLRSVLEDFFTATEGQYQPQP
Chain of PIM1 (P11309 whole entry, species assumed): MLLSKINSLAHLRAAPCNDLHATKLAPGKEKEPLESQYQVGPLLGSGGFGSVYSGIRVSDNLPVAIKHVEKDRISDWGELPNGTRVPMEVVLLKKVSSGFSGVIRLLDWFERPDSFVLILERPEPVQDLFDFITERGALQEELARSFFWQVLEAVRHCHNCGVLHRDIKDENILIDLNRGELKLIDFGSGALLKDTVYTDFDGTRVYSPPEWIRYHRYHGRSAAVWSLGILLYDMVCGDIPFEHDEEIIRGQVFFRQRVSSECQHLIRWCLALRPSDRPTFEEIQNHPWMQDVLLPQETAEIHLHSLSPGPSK
Chain of LYNA (P07948 whole entry, species assumed): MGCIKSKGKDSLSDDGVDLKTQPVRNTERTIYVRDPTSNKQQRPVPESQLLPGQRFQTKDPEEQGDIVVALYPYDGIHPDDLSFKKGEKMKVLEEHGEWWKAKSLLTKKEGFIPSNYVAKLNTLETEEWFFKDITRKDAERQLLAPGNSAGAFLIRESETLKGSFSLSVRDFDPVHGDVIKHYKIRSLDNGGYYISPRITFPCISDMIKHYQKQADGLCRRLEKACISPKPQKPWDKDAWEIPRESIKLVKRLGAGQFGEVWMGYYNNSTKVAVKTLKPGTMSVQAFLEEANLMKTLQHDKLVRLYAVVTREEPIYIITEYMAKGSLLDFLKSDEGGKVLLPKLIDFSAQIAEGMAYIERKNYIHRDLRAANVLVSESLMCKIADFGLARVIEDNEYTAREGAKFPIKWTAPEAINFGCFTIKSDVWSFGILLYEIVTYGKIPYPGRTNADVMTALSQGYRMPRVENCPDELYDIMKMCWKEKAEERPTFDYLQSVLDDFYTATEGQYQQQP
Chain of GSK3b (P49841 whole entry, species assumed): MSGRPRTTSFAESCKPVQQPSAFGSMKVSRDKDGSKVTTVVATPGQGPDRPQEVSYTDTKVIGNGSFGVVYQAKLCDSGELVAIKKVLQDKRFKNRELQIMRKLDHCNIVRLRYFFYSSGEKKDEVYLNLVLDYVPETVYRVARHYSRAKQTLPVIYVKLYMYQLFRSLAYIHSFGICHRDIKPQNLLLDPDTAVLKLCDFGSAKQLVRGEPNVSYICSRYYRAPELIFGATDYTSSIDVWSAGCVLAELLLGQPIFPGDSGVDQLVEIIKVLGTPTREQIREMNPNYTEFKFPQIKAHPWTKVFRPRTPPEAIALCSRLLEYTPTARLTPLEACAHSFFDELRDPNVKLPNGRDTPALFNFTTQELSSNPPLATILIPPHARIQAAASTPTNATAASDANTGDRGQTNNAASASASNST
Chain of BLK (P51451 whole entry): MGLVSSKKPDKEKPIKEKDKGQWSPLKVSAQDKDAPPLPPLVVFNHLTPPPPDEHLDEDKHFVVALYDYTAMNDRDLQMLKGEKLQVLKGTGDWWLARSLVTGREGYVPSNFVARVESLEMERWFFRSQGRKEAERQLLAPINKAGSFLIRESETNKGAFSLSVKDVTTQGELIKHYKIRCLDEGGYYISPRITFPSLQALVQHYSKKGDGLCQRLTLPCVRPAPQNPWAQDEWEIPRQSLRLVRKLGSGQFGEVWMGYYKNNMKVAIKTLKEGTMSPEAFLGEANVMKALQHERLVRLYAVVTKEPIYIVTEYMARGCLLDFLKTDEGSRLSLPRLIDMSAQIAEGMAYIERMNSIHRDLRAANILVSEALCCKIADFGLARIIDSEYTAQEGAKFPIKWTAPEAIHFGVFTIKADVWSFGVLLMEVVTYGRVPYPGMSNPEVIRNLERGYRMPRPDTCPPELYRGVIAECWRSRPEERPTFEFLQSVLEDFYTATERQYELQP

IC50 (EGFR-L858R): 1.2 nM
inhibition at 1 µM (ABL; [1]): 11%
inhibition at 10 µM (ABL; [2]): 39%
inhibition at 1 µM (AUR B; [1]): 52%
inhibition at 10 µM (AUR B; [2]): 87%
inhibition at 1 µM (BLK; [1]): 99%
inhibition at 10 µM (BLK; [2]): 100%
inhibition at 1 µM (C-MET; [1]): 27%
inhibition at 10 µM (C-MET; [2]): 53%
inhibition at 1 µM (CDK2; read-out: % inhibition (1 μM), CDK2, 1 μM): 18%
inhibition at 10 µM (CDK2; read-out: % inhibition (10 μM), CDK2, 10 μM): 49%
inhibition at 1 µM (ERK1; read-out: % inhibition (1 μM), ERK1, 1 μM): 1.3%
inhibition at 10 µM (ERK1; read-out: % inhibition (10 μM), ERK1, 10 μM): 19%
inhibition at 1 µM (FGFR1; read-out: % inhibition (1 μM), FGFR1, 1 μM): 19%
inhibition at 10 µM (FGFR1; read-out: % inhibition (10 μM), FGFR1, 10 μM): 63%
inhibition at 1 µM (FGFR3; read-out: % inhibition (1 μM), FGFR3, 1 μM): 14%
inhibition at 10 µM (FGFR3; read-out: % inhibition (10 μM), FGFR3, 10 μM): 33%
inhibition at 1 µM (FLT1; read-out: % inhibition (1 μM), FLT1, 1 μM): 17%
inhibition at 10 µM (FLT1; read-out: % inhibition (10 μM), FLT1, 10 μM): 58%
inhibition at 1 µM (FLT3; read-out: % inhibition (1 μM), FLT3, 1 μM): 82%
inhibition at 10 µM (FLT3; read-out: % inhibition (10 μM), FLT3, 10 μM): 99%
inhibition at 1 µM (GSK3b; [1]): 16%
inhibition at 10 µM (GSK3b; [2]): 34%
inhibition at 1 µM (HER2; read-out: % inhibition (1 μM), HER2, 1 μM): 97%
inhibition at 10 µM (HER2; read-out: % inhibition (10 μM), HER2, 10 μM): 98%
inhibition at 1 µM (HER4; read-out: % inhibition (1 μM), HER4, 1 μM): 60%
inhibition at 10 µM (HER4; read-out: % inhibition (10 μM), HER4, 10 μM): 72%
inhibition at 1 µM (IGF1R; [1]): 21%
inhibition at 10 µM (IGF1R; [2]): 36%
inhibition at 1 µM (IKKB; [1]): 9.4%
inhibition at 10 µM (IKKB; [2]): 2%
inhibition at 1 µM (JAK2; read-out: % inhibition (1 μM), JAK2, 1 μM): 22%
inhibition at 10 µM (JAK2; read-out: % inhibition (10 μM), JAK2, 10 μM): 36%
inhibition at 1 µM (KDR; [1]): 25%
inhibition at 10 µM (KDR; [2]): 73%
inhibition at 1 µM (LCK; [1]): 18%
inhibition at 10 µM (LCK; [2]): 73%
inhibition at 1 µM (LYNA; [1]): 11%
inhibition at 10 µM (LYNA; [2]): 40%
inhibition at 1 µM (P38a; [1]): 2.8%
inhibition at 10 µM (P38a; [2]): 21%
inhibition at 1 µM (PDGFRa; [1]): 4.9%
inhibition at 10 µM (PDGFRa; [2]): 35%
inhibition at 1 µM (PDGFRb; [1]): 42%
inhibition at 10 µM (PDGFRb; [2]): 84%
inhibition at 1 µM (PIM1; read-out: % inhibition (1 μM), PIM1, 1 μM): 8.2%
inhibition at 10 µM (PIM1; read-out: % inhibition (10 μM), PIM1, 10 μM): 54%
inhibition at 1 µM (PKACa; [1]): 15%
inhibition at 10 µM (PKACa; [2]): 4.7%
inhibition at 1 µM (SRC; [1]): 27%
inhibition at 10 µM (SRC; [2]): 72%
inhibition at 1 µM (cKit; [1]): -12%
inhibition at 10 µM (cKit; [2]): -3.2%
SMILES: C=CC(=O)Nc1cccc(-n2c(=O)cnc3cnc(Nc4ccc(N5CCN(C)CC5)cc4)nc32)c1 [Compound 020, N-(3-(2-(4-(4-methyl-1-piperazinyl)-phenylamino)-7-oxo-8(7H)-pteridin-yl)phenyl) acrylamide]
